According to patent publication US8192962B2, “Processes for detecting toxic substances” (Daikin Industries, Ltd., priority 2001, dated 2012):

Test system: Genes belonging to other category
Experiment: DNA chip mRNA expression in yeast, genes belonging to other category (Table 9)
Assay type: cell-based, Saccharomyces cerevisiae S288C
Outline: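 Values are treated/untreated fluorescence ratios from a whole-genome yeast DNA chip hybridized over 12 hours at 65° C with Cy3- or Cy5-labelled cDNA from poly(A) mRNA. Log-phase S288C yeast in YPD at 25° C had received a single toxic chemical for two hours, dosed to slow growth without killing.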

Measured: The level of expressed mRNA in the presence of chemical substance/The level of expressed mRNA in the absence of chemical substance

S=C([S-])NCCNC(=S)[S-].[Zn+2] [(11), zinc N,N′-ethylenebis(dithiocarbamate)]
1.7: yeast gene YDR085C
1.4: yeast gene YCR096C | yeast gene YDL061C | yeast gene YDR276C
4.6: yeast gene YBL078C
0.8: yeast gene YBL005W-A | yeast gene YBL101C | yeast gene YBR009C | yeast gene YDR181C | yeast gene YDR378C
2.2: yeast gene YDR055W
0.6: yeast gene YBR177C
1.3: yeast gene YBR128C | yeast gene YCL020W | yeast gene YCR069W | yeast gene YDL143W | yeast gene YDR257C
1.5: yeast gene YBL043W
1.2: yeast gene YBL101W-A | yeast gene YBL102W | yeast gene YBR290W | yeast gene YCR039C | yeast gene YCR062W | yeast gene YCR067C | yeast gene YCR106W | yeast gene YDR080W | yeast gene YDR115W | yeast gene YDR259C | yeast gene YDR304C | yeast gene YDR382W | yeast gene YDR407C
1.1: yeast gene YCR071C | yeast gene YDL238C | yeast gene YDR315C
1.9: yeast gene YCR004C
1.6: yeast gene YBL041W | yeast gene YCL067C | yeast gene YDR388W
3.2: yeast gene YBR214W
0.9: yeast gene YAR010C | yeast gene YBR031W | yeast gene YCL027W | yeast gene YDL008W | yeast gene YDR188W | yeast gene YDR264C
0.7: yeast gene YBR239C | yeast gene YDR084C
1.0: yeast gene YCR088W | yeast gene YDR104C | yeast gene YDR358W
